Source: patent US20240139217A1, “FORMULATIONS OF CANNABINOIDS” (ADD Advanced Drug Deliver Technologies LTD., priority 2021, published 2024)

Test: Clinical study of bioavailability and pharmacokinetic properties, multiple oral dose crossover
Format: in vivo, healthy subjects
Conditions: Mean; analyte cannabidiol in plasma; 1,500 mg CBD oral twice daily over 7 days after a light meal; 144-168 h
Method: Bioavailability and pharmacokinetic properties of cannabidiol when administered orally in the form of the above described CBD granules containing 29.7% w/w cannabidiol was assessed in a clinical study.
The study involved a comparison with a reference product, an oily cannabidiol solution (DAC C-052 “Cannabidiol”/NRF 22.10 “Ölige Cannabidiol-Lösung 100 mg/ml” (“Oily cannabidiol solution 100 mg/ml”)) and was set up as an open-label, randomised (order of treatments), balanced, multiple dose trial was performed in a 2-period, 2-sequence-crossover design with direct switch-over.
Eighteen (18) healthy subjects of both sexes were randomised. The inclusion criteria involved a body-mass index (BMI)≥18.5 kg/m^2 and ≤30.0 kg/m^2.
The investigational medicinal products were administered after a light meal as single oral doses of 1500 mg cannabidiol (i.e., 5.051 g granules dispersed in water or 15 ml solution) twice daily (i.e., every 12 h) over 7 consecutive days.
Steady-state characterisation was performed over 2 dosing intervals. […]
Cannabidiol (CBD) and its metabolite 7-hydoxy cannabidiol (7-OH-CBD) in plasma samples were analysed by use of a validated LC-MS/MS; LLOQ for CBD was 5.00 ng/ml and for 7-OH-CBD was 1.000 ng/ml.

## C=C(C)[C@@H]1CCC(C)=C[C@H]1c1c(O)cc(CCCCC)cc1O [cannabidiol, 2-[(1R,6R)-3-methyl-6-(1-methylethenyl)-2-cyclohexen-1-yl]-5-pentyl-1,3-benzenediol]
  PTF %,144-168: about 250%
